Data published in patent US20180353483A1, “PHARMACEUTICAL COMPOSITIONS AND METHODS FOR INDOLEAMINE, 2, 3-DIOXYGENASE INHIBITION AND INDICATIONS THEREFOR” (Incyte Corporation, priority 2015, published 2018).
Read-outs that look alike come from different tables or passages of the source.

Columns and labels:
[1] = Dose-escalation study of Compound 1 pharmacokinetics in subjects with advanced malignancies (tablets of Formulations 1 and/or 3, fasted; food effect cohort); assay type: in vivo, human; conditions: for AUC: read-out: AUC0-τ
From the text: Thus, Cmax, Cmin and Tmax were taken directly from the observed plasma concentration data or imputed in some cases. The terminal-phase disposition rate constant (λz) was estimated using a log-linear regression of the concentration data in the terminal disposition phase, and t1/2 was estimated as ln(2)/λz. AUC0-t and AUC0-τ was estimated using the linear trapezoidal rule for increasing concentrations and the log-trapezoidal rule for decreasing concentrations. At the PK steady-state, the apparent oral-dose clearance, CL/F, was estimated as Dose/AUC0-τ, and Vz/F was estimated as Dose/[AUC0-τ*λz].
The log-transformed pharmacokinetic parameters were compared among the BID dose groups using a 1-factor ANOVA with the factor for dose. Dose-dependent exposure parameters (Cmax and AUC) were normalized to a common dose before statistical comparisons were made.
The oral bioavailability (F) and systemic clearance (CL) were estimated. […] This method of estimation assumes near complete oral absorption and the liver being the primary organ for drug clearance. […] The above equation was modified to incorporate the term of Fa to accommodate an incomplete absorption: CL=(QH*Fa*CL/F)/(QH+Fa*CL/F).

[2] = Preclinical PK, beagle dogs; assay type: in vivo
[3] = Unbound fraction in plasma; assay type: in vitro ADME
[4] = male, dog, in vivo, 500 mg/kg/day
[5] = BID doses 50 to 700 mg, steady state
[6] = human, plasma, oral, 50 mg, 50 mg QD, steady state, geometric mean
[7] = human, plasma, oral, 100 mg, 100 mg BID, steady state, geometric mean
[8] = human, plasma, oral, 300 mg, 300 mg BID, steady state, geometric mean
[9] = human, plasma, oral, 400 mg, 400 mg BID, steady state, geometric mean
[10] = human, plasma, oral, 500 mg, 500 mg BID, steady state, geometric mean
[11] = human, plasma, oral, 600 mg, 600 mg BID, steady state, geometric mean
[12] = human, plasma, oral, 700 mg, 700 mg BID, steady state, geometric mean

Q: For `NS(=O)(=O)NCCNc1nonc1C(=NO)Nc1ccc(F)c(Br)c1` [Compound 1, 4-({2-[(aminosulfonyl)amino]ethyl}amino)-N-(3-bromo-4-fluorophenyl)-N′-hydroxy-1,2,5-oxadiazole-3-carboximidamide], which “exponent β of power-function regression, AUC0-12h vs Dose” value [1, 5] is on record?
A: Its value is 0.843.

Q: What about the “exponent β of power-function regression, Cmax vs Dose” value [1, 5] of the same molecule?
A: Its value is 0.779.

Q: And the “increase of mean AUC0-τ by systemic accumulation” value ([1]; BID dosing)?
A: The value was 33%.

Q: And the “increase of mean Cmax by systemic accumulation” value ([1]; BID dosing)?
A: Its value is 16%.

Q: And the “oral-dose clearance CL/F” value ([1]; geometric mean, pooled 42 subjects, Cycle 1 Day 15)?
A: The value was 55.3 L/h.

Q: And the “systemic clearance in percent hepatic blood flow” value ([1]; human, estimated)?
A: The value was 29%.

Q: And the “fraction of oral dose absorbed (Fa)” value ([1]; human, estimated as mean of cynomolgus monkey and beagle dog)?
A: Its value is 64%.

Q: What about the AUC(0-t) ([1]; human, plasma, oral, 50 mg, 50 mg BID, steady state, geometric mean, read-out: AUC0-t) of the same molecule?
A: Its AUC(0-t) is 2.58 µM·h.

Q: What about the AUC ([1]; human, plasma, oral, 50 mg, 50 mg BID, steady state, geometric mean) of the same molecule?
A: The AUC was 2.83 µM·h.

Q: And the half-life ([1]; human, plasma, oral, 50 mg, 50 mg BID, steady state, geometric mean, read-out: t1/2 (converted))?
A: Its half-life is 138 min.

Q: What about the AUC(0-t) ([1]; human, plasma, oral, 50 mg, 50 mg BID, steady state, mean ± SD, read-out: AUC0-t) of the same molecule?
A: The AUC(0-t) was 2.74 ± 1.08 µM·h.

Q: What about the Cmax [1, 6] of the same molecule?
A: Its Cmax is 0.365 µM.

Q: What about the AUC(0-t) ([1]; human, plasma, oral, 50 mg, 50 mg QD, steady state, geometric mean, read-out: AUC0-t) of the same molecule?
A: The AUC(0-t) was 1.37 µM·h.

Q: And the AUC [1, 6]?
A: The AUC was 1.56 µM·h.

Q: And the half-life ([1]; human, plasma, oral, 50 mg, 50 mg QD, steady state, geometric mean, read-out: t1/2 (converted))?
A: The half-life was 144 min.

Q: What about the Cmax [1, 7] of the same molecule?
A: The Cmax was 1.19 µM.

Q: What about the AUC(0-t) ([1]; human, plasma, oral, 100 mg, 100 mg BID, steady state, geometric mean, read-out: AUC0-t) of the same molecule?
A: The AUC(0-t) was 4.97 µM·h.

Q: What about the AUC [1, 7] of the same molecule?
A: Its AUC is 5.38 µM·h.

Q: What about the half-life ([1]; human, plasma, oral, 100 mg, 100 mg BID, steady state, geometric mean, read-out: t1/2 (converted)) of the same molecule?
A: The half-life was 192 min.

Q: And the AUC(0-t) ([1]; human, plasma, oral, 100 mg, 100 mg BID, steady state, mean ± SD, read-out: AUC0-t)?
A: Its AUC(0-t) is 5.32 ± 2.16 µM·h.

Q: What about the Cmax [1, 8] of the same molecule?
A: Its Cmax is 2.44 µM.

Q: And the AUC(0-t) ([1]; human, plasma, oral, 300 mg, 300 mg BID, steady state, geometric mean, read-out: AUC0-t)?
A: Its AUC(0-t) is 8.88 µM·h.

Q: What about the AUC [1, 8] of the same molecule?
A: Its AUC is 9.75 µM·h.

Q: What about the AUC(0-t) ([1]; human, plasma, oral, 300 mg, 300 mg BID, steady state, mean ± SD, read-out: AUC0-t) of the same molecule?
A: Its AUC(0-t) is 8.92 ± 0.841 µM·h.

Q: What about the Cmax [1, 9] of the same molecule?
A: The Cmax was 3.88 µM.

Q: What about the AUC(0-t) ([1]; human, plasma, oral, 400 mg, 400 mg BID, steady state, geometric mean, read-out: AUC0-t) of the same molecule?
A: The AUC(0-t) was 15 µM·h.

Q: What about the AUC [1, 9] of the same molecule?
A: Its AUC is 17.6 µM·h.

Q: What about the half-life ([1]; human, plasma, oral, 400 mg, 400 mg BID, steady state, geometric mean, read-out: t1/2 (converted)) of the same molecule?
A: Its half-life is 156 min.

Q: What about the AUC(0-t) ([1]; human, plasma, oral, 400 mg, 400 mg BID, steady state, mean ± SD, read-out: AUC0-t) of the same molecule?
A: Its AUC(0-t) is 16.7 ± 6.79 µM·h.

Q: And the Cmax [1, 10]?
A: Its Cmax is 4.48 µM.

Q: And the AUC(0-t) ([1]; human, plasma, oral, 500 mg, 500 mg BID, steady state, geometric mean, read-out: AUC0-t)?
A: The AUC(0-t) was 17.3 µM·h.

Q: What about the AUC [1, 10] of the same molecule?
A: Its AUC is 19.7 µM·h.

Q: What about the half-life ([1]; human, plasma, oral, 500 mg, 500 mg BID, steady state, geometric mean, read-out: t1/2 (converted)) of the same molecule?
A: The half-life was 144 min.

Q: And the AUC(0-t) ([1]; human, plasma, oral, 500 mg, 500 mg BID, steady state, mean ± SD, read-out: AUC0-t)?
A: Its AUC(0-t) is 18.2 ± 6.46 µM·h.

Q: What about the Cmax ([1]; human, plasma, oral, 600 mg, 600 mg BID, Fed (high-fat meal), geometric mean) of the same molecule?
A: Its Cmax is 4.03 µM.

Q: What about the AUC(0-t) ([1]; human, plasma, oral, 600 mg, 600 mg BID, Fed (high-fat meal), geometric mean, read-out: AUC0-12 h) of the same molecule?
A: The AUC(0-t) was 25.8 µM·h.

Q: What about the Cmax ([1]; human, plasma, oral, 600 mg, 600 mg BID, Fed (high-fat meal), mean ± SD) of the same molecule?
A: The Cmax was 4.53 ± 2.52 µM.

Q: And the AUC(0-t) ([1]; human, plasma, oral, 600 mg, 600 mg BID, Fed (high-fat meal), mean ± SD, read-out: AUC0-12 h)?
A: The AUC(0-t) was 29.5 ± 18.2 µM·h.

Q: What about the tmax ([1]; human, plasma, oral, 600 mg, 600 mg BID, Fed (high-fat meal), median, read-out: Tmax) of the same molecule?
A: The tmax was 6 h.

Q: And the Cmax ([1]; human, plasma, oral, 600 mg, 600 mg BID, food effect cohort, Fasted, geometric mean)?
A: Its Cmax is 4.52 µM.

Q: And the AUC(0-t) ([1]; human, plasma, oral, 600 mg, 600 mg BID, food effect cohort, Fasted, geometric mean, read-out: AUC0-12 h)?
A: Its AUC(0-t) is 21.6 µM·h.

Q: What about the Cmax ([1]; human, plasma, oral, 600 mg, 600 mg BID, food effect cohort, Fasted, mean ± SD) of the same molecule?
A: The Cmax was 4.82 ± 2.16 µM.

Q: What about the AUC(0-t) ([1]; human, plasma, oral, 600 mg, 600 mg BID, food effect cohort, Fasted, mean ± SD, read-out: AUC0-12 h) of the same molecule?
A: The AUC(0-t) was 22.9 ± 9.99 µM·h.

Q: What about the Cmax [1, 11] of the same molecule?
A: Its Cmax is 4.52 µM.

Q: And the AUC(0-t) ([1]; human, plasma, oral, 600 mg, 600 mg BID, steady state, geometric mean, read-out: AUC0-t)?
A: Its AUC(0-t) is 18.3 µM·h.

Q: And the AUC [1, 11]?
A: The AUC was 21.6 µM·h.

Q: And the half-life ([1]; human, plasma, oral, 600 mg, 600 mg BID, steady state, geometric mean, read-out: t1/2 (converted))?
A: The half-life was 192 min.

Q: What about the AUC(0-t) ([1]; human, plasma, oral, 600 mg, 600 mg BID, steady state, mean ± SD, read-out: AUC0-t) of the same molecule?
A: The AUC(0-t) was 19.5 ± 8.4 µM·h.

Q: And the tmax ([1]; human, plasma, oral, 600 mg, 600 mg BID, steady state, read-out: prolongation of Tmax by a high-fat meal)?
A: Its tmax is 4 h.

Q: And the Cmax [1, 12]?
A: The Cmax was 6 µM.

Q: What about the AUC(0-t) ([1]; human, plasma, oral, 700 mg, 700 mg BID, steady state, geometric mean, read-out: AUC0-t) of the same molecule?
A: Its AUC(0-t) is 29.6 µM·h.

Q: And the AUC [1, 12]?
A: The AUC was 33.9 µM·h.

Q: And the half-life ([1]; human, plasma, oral, 700 mg, 700 mg BID, steady state, geometric mean, read-out: t1/2 (converted))?
A: Its half-life is 174 min.

Q: And the AUC(0-t) ([1]; human, plasma, oral, 700 mg, 700 mg BID, steady state, mean ± SD, read-out: AUC0-t)?
A: Its AUC(0-t) is 30.8 ± 10.5 µM·h.

Q: And the half-life ([1]; human, plasma, oral, from accumulation ratio based on AUC, read-out: effective t1/2 (converted))?
A: Its half-life is ~360 min.

Q: What about the clearance ([1]; human, plasma, oral, read-out: mean systemic clearance CL (converted)) of the same molecule?
A: Its clearance is 417 mL/min.

Q: And the bioavailability ([1]; plasma, oral, human, estimated, CL/CLoral, read-out: mean absolute bioavailability (F))?
A: The bioavailability was 45%.

Q: And the systemic accumulation ([1]; repeat 50 mg QD administration)?
A: The systemic accumulation was “no evidence of systemic accumulation”.

Q: And the “day on which steady-state of PK was observed” value ([1]; repeat BID dosing, judged by trough plasma concentrations)?
A: Its value is ≤ 8 days.

Q: And the effective half-life ([1]; suggested by accumulation of Cmax and AUC0-τ, BID dosing)?
A: Its effective half-life is 4 to 6 h.

Q: And the “systemic clearance in percent hepatic blood flow” value ([2]; beagle dog)?
A: Its value is 26%.

Q: And the “fraction of oral dose absorbed (Fa)” value ([2]; beagle dogs, estimated from preclinical PK studies (not shown))?
A: Its value is 81%.

Q: And the “renal excretion of unchanged compound” value ([2]; dogs)?
A: The value was “less than 3 % of IV dose”.

Q: What about the “unbound fraction in plasma” value [3] of the same molecule?
A: The value was 3.1%.

Q: What about the “NOAEL unbound AUC0-24h” value [4] of the same molecule?
A: Its value is 7.9 µM·h.
